Assay results from ChEMBL document CHEMBL1201862, “PubChem BioAssay data set” (2004).
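Briefly, cells in 96-well plates were exposed to five compound concentrations for 48 h, and endpoints were estimated by linear interpolation. Here, GI50 denotes the concentration required for 50% inhibition of growth.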 Activity calls are given as the source filed them. No stated cut-off is given here; in the data, active = GI50 up to about 1.1 µM and inactive = higher.

How the values were obtained:
Test in all cases: NCI-60 cell line screen, 48 h
UACC-62 = test system: UACC-62
Malme-3M = test system: Malme-3M
TK-10 = test system: TK-10
DU-145 = test system: DU-145
OVCAR-5 = test system: OVCAR-5
SK-MEL-2 = test system: SK-MEL-2
CAKI-1 = test system: CAKI-1
NCI-H226 = test system: NCI-H226
CCRF-CEM = test system: CCRF-CEM
SNB-75 = test system: SNB-75
T47D = test system: T47D
NCI/ADR-RES = test system: NCI/ADR-RES
SF-295 = test system: SF-295
BT-549 = test system: BT-549
A498 = test system: A498
HCC 2998 = test system: HCC 2998
OVCAR-4 = test system: OVCAR-4
Hs-578T = test system: Hs-578T
NCI-H460 = test system: NCI-H460
HOP-92 = test system: HOP-92

Structure (SMILES)	GI50 (UACC-62)	GI50 (Malme-3M)	GI50 (TK-10)	GI50 (DU-145)	GI50 (OVCAR-5)	GI50 (SK-MEL-2)	GI50 (CAKI-1)	GI50 (NCI-H226)	GI50 (CCRF-CEM)	GI50 (SNB-75)	GI50 (T47D)	GI50 (NCI/ADR-RES)	GI50 (SF-295)	GI50 (BT-549)	GI50 (A498)	GI50 (HCC 2998)	GI50 (OVCAR-4)	GI50 (Hs-578T)	GI50 (NCI-H460)	GI50 (HOP-92)
CCOC(=O)C1=NN(c2ccccc2)C(=O)/C1=C\NC(=S)C(N)=S	29.3 µM (inactive)	45.3 µM (inactive)	36.2 µM (inactive)	50.9 µM (inactive)	38.6 µM (inactive)	43.1 µM (inactive)	38.1 µM (inactive)	54.5 µM (inactive)	34.1 µM (inactive)	47.3 µM (inactive)	13.1 µM (inactive)	> 100 µM (inactive)	74.6 µM (inactive)	35 µM (inactive)	> 100 µM (inactive)	43.4 µM (inactive)	40.9 µM (inactive)	32.7 µM (inactive)	49.3 µM (inactive)	39.1 µM (inactive)
Nn1c(SCC(=O)NCc2ccccc2)nc2ccccc2c1=O	41.6 µM (inactive)	51.2 µM (inactive)	41.5 µM (inactive)	65 µM (inactive)	> 100 µM (inactive)	76.7 µM (inactive)	84.1 µM (inactive)	79.1 µM (inactive)	13.7 µM (inactive)	> 100 µM (inactive)	> 100 µM (inactive)	36.5 µM (inactive)	48.6 µM (inactive)	73.3 µM (inactive)	61.2 µM (inactive)	44.8 µM (inactive)	54.2 µM (inactive)	57.5 µM (inactive)	46.3 µM (inactive)	34.2 µM (inactive)
COC(=O)c1c(OC(C)=O)ccc2c1c1c(n2C)C(=O)c2ccccc2C1=O	35.3 µM (inactive)	23.9 µM (inactive)	31 µM (inactive)	14.6 µM (inactive)	34.3 µM (inactive)	23.2 µM (inactive)	20.7 µM (inactive)	38.9 µM (inactive)		7.93 µM (inactive)	4.81 µM (inactive)	33.9 µM (inactive)	21.5 µM (inactive)	17 µM (inactive)	13.5 µM (inactive)	26.8 µM (inactive)	28.6 µM (inactive)	8.38 µM (inactive)	22.4 µM (inactive)	1.34 µM (inactive)
CCOP(=O)(OCC)[C@H]1OC(C)(C)O[C@@H]1CO	> 100 µM (inactive)	> 100 µM (inactive)	> 100 µM (inactive)	> 100 µM (inactive)	> 100 µM (inactive)	> 100 µM (inactive)	> 100 µM (inactive)		> 100 µM (inactive)		> 100 µM (inactive)	> 100 µM (inactive)	> 100 µM (inactive)	> 100 µM (inactive)	> 100 µM (inactive)	> 100 µM (inactive)	> 100 µM (inactive)	> 100 µM (inactive)	> 100 µM (inactive)	> 100 µM (inactive)
O=C(Nn1c(-c2ccccc2)nc2ccccc2c1=O)c1ccccn1	42.3 µM (inactive)	> 100 µM (inactive)	> 100 µM (inactive)	> 100 µM (inactive)					41.5 µM (inactive)	42.1 µM (inactive)	> 100 µM (inactive)	> 100 µM (inactive)	98.9 µM (inactive)	> 100 µM (inactive)	15.4 µM (inactive)	> 100 µM (inactive)	> 100 µM (inactive)	27.5 µM (inactive)	> 100 µM (inactive)	78 µM (inactive)
O=C(O)CN1C=C(C(=O)c2cc3ccccc3n2S(=O)(=O)c2ccccc2)CCC1	83 µM (inactive)	28.4 µM (inactive)	> 100 µM (inactive)	> 100 µM (inactive)	> 100 µM (inactive)	87.5 µM (inactive)	> 100 µM (inactive)	46.8 µM (inactive)	30.9 µM (inactive)	27.5 µM (inactive)	28.6 µM (inactive)	66.1 µM (inactive)	69.5 µM (inactive)	83.2 µM (inactive)	69.3 µM (inactive)	69.7 µM (inactive)	83.9 µM (inactive)	81.3 µM (inactive)	96.2 µM (inactive)	46.9 µM (inactive)
O=C1NC2CCCCC2N=C1CC(=O)c1ccc(Br)cc1 (stereo not given)	4.57 µM (inactive)	> 100 µM (inactive)	74.5 µM (inactive)	> 100 µM (inactive)	> 100 µM (inactive)	70.6 µM (inactive)	> 100 µM (inactive)	4.22 µM (inactive)	5.2 µM (inactive)		3.94 µM (inactive)	4.07 µM (inactive)	17.9 µM (inactive)	14.6 µM (inactive)	> 100 µM (inactive)	39 µM (inactive)		4.86 µM (inactive)	3.4 µM (inactive)	10.2 µM (inactive)
O=C(NNC(=O)c1ccccc1O)c1ccccc1O	0.0495 µM (active)	0.0393 µM (active)	5.97 µM (inactive)	0.0445 µM (active)	0.5 µM (active)		< 0.0237 µM (active)	0.873 µM (active)	0.0173 µM (active)	0.0565 µM (active)	0.0625 µM (active)	0.0791 µM (active)	0.189 µM (active)	0.0426 µM (active)	19.8 µM (inactive)	0.0519 µM (active)	0.0621 µM (active)	0.0149 µM (active)	0.15 µM (active)	2.25 µM (inactive)
